Experiments:
[1] = biological target: T1, Peroxisome proliferator-activated receptor alpha (Rattus norvegicus, UniProt P37230); test: Agonist activity at rat PPARalpha in rat H4IIE cells assessed as gene induction; assay type: functional, cell-based
T1 sequence (P37230 whole entry): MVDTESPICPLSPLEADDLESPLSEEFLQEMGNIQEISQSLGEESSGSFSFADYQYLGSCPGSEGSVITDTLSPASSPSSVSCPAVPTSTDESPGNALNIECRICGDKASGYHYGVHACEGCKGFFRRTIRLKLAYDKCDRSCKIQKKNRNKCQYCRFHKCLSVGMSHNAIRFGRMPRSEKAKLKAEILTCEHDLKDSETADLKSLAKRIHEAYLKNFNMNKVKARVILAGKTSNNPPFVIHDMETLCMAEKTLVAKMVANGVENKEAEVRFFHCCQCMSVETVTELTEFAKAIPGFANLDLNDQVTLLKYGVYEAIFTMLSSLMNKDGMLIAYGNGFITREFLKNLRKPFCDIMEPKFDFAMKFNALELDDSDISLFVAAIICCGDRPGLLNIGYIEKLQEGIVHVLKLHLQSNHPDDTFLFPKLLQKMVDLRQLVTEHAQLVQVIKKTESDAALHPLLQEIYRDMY

[2] = Metabolic stability in human liver microsomes at 5 uM; assay type: ADME, Microsome
[3] = Cmax in Sprague-Dawley rat at 3 mg/kg, iv or 30 mg/kg, po; assay type: ADME, organism-based; details: in vivo
[4] = AUC in Sprague-Dawley rat at 3 mg/kg, iv or 30 mg/kg, po; assay type: ADME, organism-based; details: plasma
[5] = Half life at terminal phase in Sprague-Dawley rat at 30 mg/kg, po; assay type: ADME, organism-based; parameters: dose 30 mg/kg, route oral; details: in vivo, read-out: beta t1/2 (converted)
[6] = Total clearance in Sprague-Dawley rat at 3 mg/kg, iv or 30 mg/kg, po; assay type: ADME, organism-based; details: in vivo
[7] = Oral bioavailability in Sprague-Dawley rat at 30 mg/kg; assay type: ADME, organism-based; details: in vivo
Mus musculus [8] = test: Reduction in body weight of db/db mouse at 1 mg/kg, po after 11 days; parameters: scale not given: the % may be the effect or the level left
Mus musculus [9] = test: Reduction in glucose levels in db/db mouse plasma at 1 mg/kg, po after 11 days; parameters: scale not given: the % may be the effect or the level left
Mus musculus [10] = test: Reduction in insulin levels in db/db mouse plasma at 1 mg/kg, po after 11 days; parameters: scale not given: the % may be the effect or the level left
Mus musculus [11] = test: Reduction in triglyceride levels in db/db mouse plasma at 1 mg/kg, po after 11 days; parameters: scale not given: the % may be the effect or the level left
[12] = biological target: T2, Peroxisome proliferator-activated receptor alpha (Homo sapiens, UniProt Q07869); test: Agonist activity at PPARalpha expressed in HEK293 cells by GAL4 transactivation assay; assay type: functional, cell-based
T2 sequence (Q07869 whole entry): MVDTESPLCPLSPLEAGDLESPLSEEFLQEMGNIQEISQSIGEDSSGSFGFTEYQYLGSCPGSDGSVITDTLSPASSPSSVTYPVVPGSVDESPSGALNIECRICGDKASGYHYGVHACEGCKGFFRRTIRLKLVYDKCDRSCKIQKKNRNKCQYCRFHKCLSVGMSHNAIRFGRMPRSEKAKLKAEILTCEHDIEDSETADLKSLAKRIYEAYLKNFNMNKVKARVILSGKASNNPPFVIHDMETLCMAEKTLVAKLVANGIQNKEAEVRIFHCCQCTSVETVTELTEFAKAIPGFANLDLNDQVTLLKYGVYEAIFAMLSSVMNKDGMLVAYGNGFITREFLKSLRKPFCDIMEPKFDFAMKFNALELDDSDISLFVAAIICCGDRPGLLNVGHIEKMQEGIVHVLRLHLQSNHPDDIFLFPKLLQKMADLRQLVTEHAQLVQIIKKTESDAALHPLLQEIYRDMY

[13] = biological target: T3, Peroxisome proliferator-activated receptor delta (Homo sapiens, UniProt Q03181); test: Agonist activity at PPARdelta expressed in HEK293 cells by GAL4 transactivation assay; assay type: functional, cell-based
T3 sequence (Q03181 whole entry): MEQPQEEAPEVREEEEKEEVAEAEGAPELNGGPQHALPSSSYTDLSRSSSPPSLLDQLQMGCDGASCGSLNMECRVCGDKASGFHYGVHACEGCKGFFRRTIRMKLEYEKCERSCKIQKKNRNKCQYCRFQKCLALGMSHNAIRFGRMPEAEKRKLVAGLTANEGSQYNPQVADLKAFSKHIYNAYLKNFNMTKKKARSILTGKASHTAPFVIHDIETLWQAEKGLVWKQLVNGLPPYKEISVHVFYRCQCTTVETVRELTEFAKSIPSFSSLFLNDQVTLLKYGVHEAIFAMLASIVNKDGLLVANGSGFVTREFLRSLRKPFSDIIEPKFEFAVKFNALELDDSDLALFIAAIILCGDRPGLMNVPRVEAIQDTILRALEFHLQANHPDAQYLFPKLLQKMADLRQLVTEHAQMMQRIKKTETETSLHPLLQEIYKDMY

[14] = biological target: T4, Peroxisome proliferator-activated receptor gamma (Homo sapiens) (UniProt P37231); test: Agonist activity at PPARgamma expressed in HEK293 cells assessed as aP2 gene induction relative to BRL-49653; assay type: functional, cell-based
T4 sequence (whole entry): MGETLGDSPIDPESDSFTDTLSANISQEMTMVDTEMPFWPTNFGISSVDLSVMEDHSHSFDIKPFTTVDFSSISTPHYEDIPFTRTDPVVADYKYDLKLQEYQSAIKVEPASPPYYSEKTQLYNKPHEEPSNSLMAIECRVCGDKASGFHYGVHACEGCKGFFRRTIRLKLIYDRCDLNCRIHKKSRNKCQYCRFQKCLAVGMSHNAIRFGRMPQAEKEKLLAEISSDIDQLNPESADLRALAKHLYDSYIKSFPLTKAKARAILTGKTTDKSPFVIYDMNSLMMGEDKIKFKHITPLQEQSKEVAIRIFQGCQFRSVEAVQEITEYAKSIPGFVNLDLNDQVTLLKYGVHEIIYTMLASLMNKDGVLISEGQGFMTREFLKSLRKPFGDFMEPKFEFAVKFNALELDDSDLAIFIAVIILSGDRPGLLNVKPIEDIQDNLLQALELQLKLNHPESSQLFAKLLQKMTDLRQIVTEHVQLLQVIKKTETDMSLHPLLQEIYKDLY

[15] = biological target: T5, Peroxisome proliferator-activated receptor gamma (Homo sapiens, UniProt P37231)
T5 sequence (P37231 whole entry): T4 sequence (whole entry)
Description: Agonist activity at PPARgamma expressed in HEK293 cells by GAL4 transactivation assay

Mus musculus [16] = test: Reduction in insulin levels in db/db mouse plasma at 0.1 mg/kg, po after 11 days; parameters: scale not given: the % may be the effect or the level left
Mus musculus [17] = test: Reduction in glucose levels in db/db mouse plasma at 0.1 mg/kg, po after 11 days; parameters: scale not given: the % may be the effect or the level left
Mus musculus [18] = test: Reduction in triglyceride levels in db/db mouse plasma at 0.1 mg/kg, po after 11 days; parameters: scale not given: the % may be the effect or the level left

Row | Compound | EC50 [1] | half-life at 5 µM [2] | Cmax [3] | AUC [4] | half-life [5] | clearance [6] | bioavailability [7] | Activity (Mus musculus [8]) | Activity (Mus musculus [9]) | Activity (Mus musculus [10]) | Activity (Mus musculus [11]) | EC50 [12] | EC50 [13] | Activity [14] | EC50 [15] | Activity (Mus musculus [16]) | Activity (Mus musculus [17]) | Activity (Mus musculus [18])
1 | CCN(C(=O)Nc1ccc(OC(F)(F)F)cc1)C1Cc2ccc(SC(C)(C)C(=O)O)cc2C1 (configuration not stated) | 33 nM | 1.67 h | 39300 ng/mL | 290 µg·h/mL | 4 h | 0.1 mL/min/kg | 59% | 59% | 60% | 53% | 56% | – | – | – | – | – | – | –
2 | CCN(C(=O)Nc1ccc(OC(F)(F)F)cc1)[C@@H]1Cc2ccc(SC(C)(C)C(=O)O)cc2C1 | 2 nM | – | – | – | – | – | – | – | – | – | – | 170 nM | 2100 nM | 3.8% | > 10000 nM | 49% | 16% | 43%
3 | CCCCCCCN(CCc1ccc(SC(C)(C)C(=O)O)cc1)C(=O)Nc1ccc(F)cc1F [GSK-9578] | 166 nM | – | – | – | – | – | – | – | – | – | – | – | 150 nM | 0.46% | – | – | – | –

— ChEMBL document CHEMBL1141364, “Design and synthesis of indane-ureido-thioisobutyric acids: A novel class of PPARalpha agonists” (Bioorg Med Chem Lett, 2007)
